Patent US8222448B2, “Processes for production of 2-bromo-2,2-difluoroethanol and 2-(alkylcarbonyloxy)-1, 1-difluoroethanesulfonic acid salt” (priority 2007, dated 2012)

Test: Solubility in propylene glycol methyl ether acetate
Format: physicochemical
Details: 1.0 g added to 100 g of propylene glycol methyl ether acetate, stirring
Description: 1.0 g of sodium 2-(1′-adamantane)carbonyloxy-1,1-difluoroethanesulfonate synthesized in Example 8 was weighed and added to 100 g of propylene glycol methyl ether acetate, followed by stirring.

SMILES: O=C(OCC(F)(F)S(=O)(=O)[O-])C12CC3CC(CC(C3)C1)C2.c1ccc([S+](c2ccccc2)c2ccccc2)cc1 [Example 8, triphenylsulfonium 2-(1′-adamantane)carbonyloxy-1,1-difluoroethanesulfonate]
- Solubility: completely dissolved
